Measured values as given in paper PMC9867533, “A New Anticancer Semisynthetic Theobromine Derivative Targeting EGFR Protein: CADDD Study” (Life, 2023).
pIC50: −log10 of the molar value.

Molecular target: EGFR^WT (Homo sapiens, UniProt P00533)
Test: in vitro EGFR kinase inhibition assay (human EGFR ELISA kit)
Type: biochemical

Chain of EGFR^WT (P00533 25-1210): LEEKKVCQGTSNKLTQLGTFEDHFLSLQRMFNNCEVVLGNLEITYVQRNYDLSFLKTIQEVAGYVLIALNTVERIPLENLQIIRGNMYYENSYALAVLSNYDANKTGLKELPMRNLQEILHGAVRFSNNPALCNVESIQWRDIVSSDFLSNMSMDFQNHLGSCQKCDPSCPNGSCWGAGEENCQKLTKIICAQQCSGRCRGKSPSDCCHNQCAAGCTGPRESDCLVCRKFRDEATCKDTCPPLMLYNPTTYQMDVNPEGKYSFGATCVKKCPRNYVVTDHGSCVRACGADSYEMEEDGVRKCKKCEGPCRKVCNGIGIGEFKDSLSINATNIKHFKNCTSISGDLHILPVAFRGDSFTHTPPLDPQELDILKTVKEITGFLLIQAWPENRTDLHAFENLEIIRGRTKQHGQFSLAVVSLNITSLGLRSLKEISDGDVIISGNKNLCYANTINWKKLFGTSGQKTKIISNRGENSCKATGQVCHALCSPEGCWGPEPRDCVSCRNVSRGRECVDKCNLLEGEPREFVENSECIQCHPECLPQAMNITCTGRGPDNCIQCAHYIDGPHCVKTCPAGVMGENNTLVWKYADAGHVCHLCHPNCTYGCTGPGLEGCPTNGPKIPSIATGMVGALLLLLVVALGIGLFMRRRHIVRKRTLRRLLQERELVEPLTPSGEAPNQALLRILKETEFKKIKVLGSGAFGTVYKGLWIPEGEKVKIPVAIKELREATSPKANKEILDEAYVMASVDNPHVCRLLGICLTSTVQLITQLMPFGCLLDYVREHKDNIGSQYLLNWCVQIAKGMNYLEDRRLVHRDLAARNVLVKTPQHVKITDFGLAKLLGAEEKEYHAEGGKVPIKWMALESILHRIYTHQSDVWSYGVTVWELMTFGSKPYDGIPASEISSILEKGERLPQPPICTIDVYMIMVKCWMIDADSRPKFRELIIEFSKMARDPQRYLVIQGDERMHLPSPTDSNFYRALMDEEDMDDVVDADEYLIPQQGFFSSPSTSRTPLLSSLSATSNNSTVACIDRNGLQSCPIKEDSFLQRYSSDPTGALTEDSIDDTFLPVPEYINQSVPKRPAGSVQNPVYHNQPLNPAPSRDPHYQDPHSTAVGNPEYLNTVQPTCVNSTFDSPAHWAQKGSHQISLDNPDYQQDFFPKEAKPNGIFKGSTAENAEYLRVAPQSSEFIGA

SMILES: Cn1cnc2c1c(=O)n(CC(=O)Nc1ccc(Cl)cc1)c(=O)n2C [T-1-PCPA, N-(4-Chlorophenyl)-2-(3,7-dimethyl-2,6-dioxo-2,3,6,7-tetrahydro-1H-purin-1-yl)acetamide]
- pIC50: 7.60
